In patent US9226500B2, “Pesticidal compositions and processes related thereto” (Dow AgroSciences LLC, priority 2012, dated 2016):

System: Beet Armyworm (Spodoptera exigua)
Assay: Bioassay on Beet Armyworm (BAW), 128-well diet tray assay
Format: in vivo
Details: Table 3, Assays Results Part 1
Protocol: Certain molecules disclosed in this document were tested against BAW, CEW and CL using procedures described in the following examples. In the reporting of the results, the “BAW & CEW & CL Rating Table” was used (See Table Section).
Bioassays on BAW (Spodoptera exigua)
Bioassays on BAW were conducted using a 128-well diet tray assay. One to five second instar BAW larvae were placed in each well (3 mL) of the diet tray that had been previously filled with 1 mL of artificial diet to which 50 μg/cm^2 of the test compound (dissolved in 50 μL of 90:10 acetone-water mixture) had been applied (to each of eight wells) and then allowed to dry. Trays were covered with a clear self-adhesive cover, and held at 25° C., 14:10 light-dark for five to seven days. Percent mortality was recorded for the larvae in each well; activity in the eight wells was then averaged. The results are indicated in the tables entitled “Table 3: Assay Results Part 1” and “Table 4: Assay Results Part 2” (See Table Section).

## O=C(C1CC1)N(Cc1ccccn1)Cc1ccc(/C=C/C(c2cc(Cl)c(Cl)c(Cl)c2)C(F)(F)F)cc1C(F)(F)F (stereo not drawn) [CC29, (E)-N-(Pyridin-2-ylmethyl)-N-(4-(4,4,4-trifluoro-3-(3,4,5-trichlorophenyl)but-1-enyl)-2-(trifluoromethyl)benzyl)cyclopropanecarboxamide]
  BAW Rating: A (50-100)

## CS(=O)(=O)CCC(=O)NCc1ccc(/C=C/C(c2cc(Cl)c(Cl)c(Cl)c2)C(F)(F)F)cc1Cl (stereo not drawn) [CC30, (E)-N-(2-Chloro-4-(4,4,4-trifluoro-3-(3,4,5-trichlorophenyl)but-1-en-1-yl)benzyl)-3-(methylsulfonyl)propanamide]
  BAW Rating: A (50-100)

## CCNC(=O)NCc1ccc(/C=C/C(c2cc(Cl)cc(Cl)c2)C(F)(F)F)cc1Cl (stereo not drawn) [CC31, (E)-1-(2-Chloro-4-(3-(3,5-dichlorophenyl)-4,4,4-trifluorobut-1-en-1-yl)benzyl)-3-ethylurea]
  BAW Rating: B (More than 0-Less than 50)

## CCNC(=O)NCc1ccc(/C=C/C(c2cc(Cl)c(Cl)c(Cl)c2)C(F)(F)F)cc1C(F)(F)F (stereo not drawn) [CC32]
  BAW Rating: A (50-100)

## CCNC(=O)NCc1ccc(/C=C/C(c2cc(Cl)c(Cl)c(Cl)c2)C(F)(F)F)cc1Br (stereo not drawn) [CC33]
  BAW Rating: A (50-100)

## O=C(NCc1ccc(/C=C/C(c2cc(Cl)c(Cl)c(Cl)c2)C(F)(F)F)cc1Cl)N1CCOCC1 (stereo not drawn) [CC34]
  BAW Rating: A (50-100)

## CN(C)C(=O)NCc1ccc(/C=C/C(c2cc(Cl)c(Cl)c(Cl)c2)C(F)(F)F)cc1Cl (stereo not drawn) [CC36, (E)-3-(2-Chloro-4-(4,4,4-trifluoro-3-(3,4,5-trichlorophenyl)but-1-en-1-yl)benzyl)-1,1-dimethylurea]
  BAW Rating: A (50-100)

## CCNC(=S)NCc1ccc(/C=C/C(c2cc(Cl)c(Cl)c(Cl)c2)C(F)(F)F)cc1Cl (stereo not drawn) [CC37, (E)-1-(2-Chloro-4-(4,4,4-trifluoro-3-(3,4,5-trichlorophenyl)but-1-en-1-yl)benzyl)-3-ethylthiourea]
  BAW Rating: A (50-100)

## C=CCNC(=S)NCc1ccc(/C=C/C(c2cc(Cl)c(Cl)c(Cl)c2)C(F)(F)F)cc1Cl (stereo not drawn) [CC38]
  BAW Rating: A (50-100)

## FC(F)(F)C(/C=C/c1ccc(CNc2ccccn2)c(Cl)c1)c1cc(Cl)c(Cl)c(Cl)c1 (stereo not drawn) [CC43, (E)-N-(2-Chloro-4-(4,4,4-trifluoro-3-(3,4,5-trichlorophenyl)but-1-en-1-yl)benzyl)pyridin-2-amine]
  BAW Rating: A (50-100)

## O=C(CC(F)(F)F)NCc1ncc(/C=C/C(c2cc(Cl)c(Cl)c(Cl)c2)C(F)(F)F)cc1Cl (stereo not drawn) [CC44, (E)-N-((3-Chloro-5-(4,4,4-trifluoro-3-(3,4,5-trichlorophenyl)-but-1-en-1-yl)pyridin-2-yl)methyl)-3,3,3-trifluoropropanamide]
  BAW Rating: A (50-100)

## O=C(NCc1ncc(/C=C/C(c2cc(Cl)c(Cl)c(Cl)c2)C(F)(F)F)cc1Cl)C1CC1 (stereo not drawn) [CC45]
  BAW Rating: A (50-100)

## O=C(NNc1ccc(/C=C/C(c2cc(Cl)c(Cl)c(Cl)c2)C(F)(F)F)cc1)C1CC1 (stereo not drawn) [CC50, (E)-N′-(4-(4,4,4-Trifluoro-3-(3,4,5-trichlorophenyl)but-1-en-1-yl)phenyl)cyclopropanecarbohydrazide]
  BAW Rating: A (50-100)

## O=C(CC(F)(F)F)NNc1ccc(/C=C/C(c2cc(Cl)c(Cl)c(Cl)c2)C(F)(F)F)cc1 (stereo not drawn) [CC51]
  BAW Rating: A (50-100)

## O=C(NOc1ccc(/C=C/C(c2cc(Cl)c(Cl)c(Cl)c2)C(F)(F)F)cc1)C1CC1 (stereo not drawn) [CC52, (E)-N-(4-(4,4,4-Trifluoro-3-(3,4,5-trichlorophenyl)but-1-en-1-yl)phenoxy)cyclopropanecarboxamide]
  BAW Rating: A (50-100)

## O=C(CC(F)(F)F)NCc1ccc(/C=C\C(c2cc(Cl)c(Cl)c(Cl)c2)C(F)(F)F)cc1 (stereo not drawn) [CC54, (Z)-3,3,3-Trifluoro-N-(4-(4,4,4-trifluoro-3-(3,4,5-trichlorophenyl)but-1-en-1-yl)benzyl)propanamide]
  BAW Rating: A (50-100)

## FC(F)(F)C(/C=C/c1ccc(-n2cncn2)cc1)c1cc(Cl)cc(Cl)c1 (stereo not drawn) [DC1, (E)-1-(4-(3-(3,5-Dichlorophenyl)-4,4,4-trifluorobut-1-en-1-yl)phenyl)-1H-1,2,4-triazole]
  BAW Rating: A (50-100)

## FC(F)(F)C(/C=C/c1ccc(-n2cncn2)cc1)c1ccccc1 (stereo not drawn) [DC3]
  BAW Rating: B (More than 0-Less than 50)

## FC(F)(F)C(/C=C/c1ccc(-n2cncn2)cc1)c1ccc(Cl)cc1 (stereo not drawn) [DC4]
  BAW Rating: A (50-100)

## Fc1ccc(C(/C=C/c2ccc(-n3cncn3)cc2)C(F)(F)F)cc1 (stereo not drawn) [DC7]
  BAW Rating: A (50-100)

## Fc1cc(F)cc(C(/C=C/c2ccc(-n3cncn3)cc2)C(F)(F)F)c1 (stereo not drawn) [DC8]
  BAW Rating: A (50-100)

## Cc1cc(C)cc(C(/C=C/c2ccc(-n3cncn3)cc2)C(F)(F)F)c1 (stereo not drawn) [DC11]
  BAW Rating: A (50-100)

## FC(F)(F)C(/C=C/c1ccc(-n2cncn2)cc1)c1ccc(Cl)c(Cl)c1 (stereo not drawn) [DC12]
  BAW Rating: A (50-100)

## FC(F)(F)c1cc(C(/C=C/c2ccc(-n3cncn3)cc2)C(F)(F)F)cc(C(F)(F)F)c1 (stereo not drawn) [DC16]
  BAW Rating: A (50-100)

## COc1c(Cl)cc(C(/C=C/c2ccc(-n3cncn3)cc2)C(F)(F)F)cc1Cl (stereo not drawn) [DC20]
  BAW Rating: A (50-100)

## N#Cc1cc(/C=C/C(c2cc(Cl)cc(C(F)(F)F)c2)C(F)(F)F)ccc1-n1cncn1 (stereo not drawn) [DC33]
  BAW Rating: A (50-100)

## COc1c(Cl)cc(C(/C=C/c2ccc(-n3cncn3)c(C#N)c2)C(F)(F)F)cc1Cl (stereo not drawn) [DC34]
  BAW Rating: A (50-100)

## N#Cc1cc(/C=C/C(c2cc(Cl)c(F)c(Cl)c2)C(F)(F)F)ccc1-n1cncn1 (stereo not drawn) [DC35]
  BAW Rating: A (50-100)

## N#Cc1cc(/C=C/C(c2cc(Cl)cc(Cl)c2)C(F)(F)F)ccc1-n1cnc([N+](=O)[O-])n1 (stereo not drawn) [DC37]
  BAW Rating: A (50-100)

## N#Cc1cc(/C=C/C(c2cc(Cl)cc(Cl)c2)C(F)(F)F)ccc1-n1cnc(N)n1 (stereo not drawn) [DC38]
  BAW Rating: A (50-100)

## CC(=O)Nc1ncn(-c2ccc(/C=C/C(c3cc(Cl)cc(Cl)c3)C(F)(F)F)cc2C#N)n1 (stereo not drawn) [DC39]
  BAW Rating: A (50-100)

## N#Cc1cc(/C=C/C(c2cc(Cl)c(Cl)c(Cl)c2)C(F)(F)F)ccc1-n1cnc([N+](=O)[O-])n1 (stereo not drawn) [DC40, (E)-2-(3-Nitro-1H-1,2,4-triazol-1-yl)-5-(4,4,4-trifluoro-3-(3,4,5-trichlorophenyl)but-1-en-1-yl)benzonitrile]
  BAW Rating: A (50-100)

## N#Cc1cc(/C=C/C(c2cc(Cl)c(Cl)c(Cl)c2)C(F)(F)F)ccc1-n1cnc(N)n1 (stereo not drawn) [DC41, (E)-2-(3-Amino-1H-1,2,4-triazol-1-yl)-5-(4,4,4-trifluoro-3-(3,4,5-trichlorophenyl)but-1-en-1-yl)benzonitrile]
  BAW Rating: A (50-100)

## N#Cc1cc(/C=C/C(c2cc(Cl)c(Cl)c(Cl)c2)C(F)(F)F)ccc1-n1cnc(N(C(=O)C2CC2)C(=O)C2CC2)n1 (stereo not drawn) [DC42, (E)-N-(1-(2-Cyano-4-(4,4,4-trifluoro-3-(3,4,5-trichlorophenyl)but-1-en-1-yl)phenyl)-1H-1,2,4-triazol-3-yl)-N-(cyclopropanecarbonyl)cyclopropanecarboxamide]
  BAW Rating: A (50-100)

## N#Cc1cc(/C=C/C(c2cc(Cl)c(Cl)c(Cl)c2)C(F)(F)F)ccc1-n1cnc(NC(=O)C2CC2)n1 (stereo not drawn) [DC43, (E)-N-(1-(2-Cyano-4-(4,4,4-trifluoro-3-(3,4,5-trichlorophenyl)but-1-en-1-yl)phenyl)-1H-1,2,4-triazol-3-yl)cyclopropanecarboxamide]
  BAW Rating: A (50-100)

## Cc1cc(/C=C/C(c2cc(Cl)cc(Cl)c2)C(F)(F)F)cc(C#N)c1-n1cncn1 (stereo not drawn) [DC44]
  BAW Rating: A (50-100)
